In patent US11590139B2, “Substituted aminopurine compounds, compositions thereof, and methods of treatment therewith” (Signal Pharmaceuticals, LLC, priority 2014, dated 2023) one finds IC50 data, which are given here for 27 compounds.

The first assay concerns Lox-IMVI melanoma cell line. The assay is described as follows: Lox-IMVI anti-proliferative assay (growth inhibition, Cell Titer-Glo). The format is cell-based, human. The note with it: Homo sapiens; IC50 activity level in the cell-based Lox-IMVI anti-proliferative assay; read-out: Activity. The essentials:
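RPMI/10% FBS; cmpd 0.5 nM–10 μM, 3-fold ×10, duplicate, 0.2% DMSO final; 72 h, 37 °C, 5% CO2. ATP-luminescence readout at t0 and 72 h. IC50 = 50% of DMSO control, 4-parameter logistic fit.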
On the technique in general: Cellular ATP, detected with luciferase, serves as a proxy for viable cell number.
`NC(=O)[C@H]1CC[C@@H](n2c(Nc3c(Cl)cc(Cl)cc3Cl)nc3cnc(N[C@H]4C[C@@H](O)C4)nc32)CC1` [Example 323, (1s,4s)-4-(2-((1s,3s)-3-hydroxycyclobutylamino)-8-(2,4,6-trichlorophenylamino)-9H-purin-9-yl)cyclohexanecarboxamide]: the IC50 is greater than 1000 nM. Take `NC(=O)[C@H]1CC[C@@H](n2c(Nc3c(Cl)cc(Cl)cc3Cl)nc3cnc(N[C@@H]4CCC[C@H]4O)nc32)CC1` [Example 254, (1S,4s)-4-(2-((1R,2R)-2-hydroxycyclopentylamino)-8-(2,4,6-trichlorophenylamino)-9H-purin-9-yl)cyclohexanecarboxamide]: the IC50 is 500 to 1000 nM.

On to `NC(=O)[C@H]1CC[C@@H](n2c(Nc3ccc(Cl)cc3F)nc3cnc(NC4CCCC4)nc32)CC1` [Example 95, (1s,4s)-4-(8-(4-chloro-2-fluorophenylamino)-2-(cyclopentylamino)-9H-purin-9-yl)cyclohexanecarboxamide], for which the IC50 is greater than 1000 nM. Regarding `NC(=O)[C@H]1CC[C@@H](n2c(Nc3cccc(Cl)c3F)nc3cnc(NC4CCC(F)(F)CC4)nc32)CC1` [Example 237, (1s,4s)-4-(8-(3-chloro-2-fluorophenylamino)-2-(4,4-difluorocyclohexylamino)-9H-purin-9-yl)cyclohexanecarboxamide], the IC50 is greater than 1000 nM.

`CC[C@@H](CO)Nc1ncc2nc(Nc3cccc(Cl)c3F)n([C@H]3CC[C@@H](C(N)=O)CC3)c2n1` [Example 150, (1R,4s)-4-(8-(3-chloro-2-fluorophenylamino)-2-((S)-1_ hydroxybutan-2-ylamino)-9H-purin-9-yl)cyclohexanecarboxamide]: the IC50 was greater than 1000 nM. On to `NC(=O)[C@H]1CC[C@@H](n2c(Nc3cc(F)c(Cl)cc3F)nc3cnc(NC4CCC(F)(F)CC4)nc32)CC1` [Example 238, (1s,4s)-4-(8-(4-chloro-2,5-difluorophenylamino)-2-(4,4-difluorocyclohexylamino)-9H-purin-9-yl)cyclohexanecarboxamide], for which the IC50 is greater than 1000 nM. As to `CCC(C)Nc1ncc2nc(Nc3c(F)ccc(Cl)c3F)n([C@H]3CC[C@@H](C(N)=O)CC3)c2n1` (stereo partly drawn) [Example 340, (1R,4s)-4-(2-(sec-butylamino)-8-(3-chloro-2,6-difluorophenylamino)-9H-purin-9-yl)cyclohexanecarboxamide], the IC50 is greater than 1000 nM.

In the case of `CO[C@H]1CC[C@H](Nc2ncc3nc(Nc4c(Cl)cc(Cl)cc4Cl)n([C@H]4CC[C@@H](C(N)=O)CC4)c3n2)CC1` [Example 77, (1s,4s)-4-(2-((1r,4r)-4-methoxycyclohexylamino)-8-(2,4,6-trichlorophenylamino)-9H-purin-9-yl)cyclohexanecarboxamide], the IC50 was 500 to 1000 nM.

Take `CC(C)(C)OC(=O)N1CCC[C@@H](Nc2ncc3nc(Nc4c(F)cc(F)cc4F)n([C@H]4CC[C@@H](C(N)=O)CC4)c3n2)C1` [Example 158, (R)-tert-butyl 3-(9-((1s,4S)-4-carbamoylcyclohexyl)-8-(2,4,6-trifluorophenylamino)-9H-purin-2-ylamino)piperidine-1-carboxylate]: the IC50 was greater than 1000 nM. For the compound `NC(=O)[C@H]1CC[C@@H](n2c(Nc3ccc(Cl)c(F)c3F)nc3cnc(NC4CC(F)(F)C4)nc32)CC1` [Example 232, (1s,4s)-4-(8-(4-chloro-2,3-difluorophenylamino)-2-(3,3-difluorocyclobutylamino)-9H-purin-9-yl)cyclohexanecarboxamide], the IC50 was greater than 1000 nM. Take `CC[C@@H](CO)Nc1ncc2nc(Nc3c(F)cc(F)cc3Cl)n([C@H]3CC[C@@H](C(N)=O)CC3)c2n1` [Example 147, (1R,4s)-4-(8-(2-chloro-4,6-difluorophenylamino)-2-((S)-1-hydroxybutan-2-ylamino)-9H-purin-9-yl)cyclohexanecarboxamide]: the IC50 is greater than 1000 nM.

The same assay, now with this note: Homo sapiens; Lox-IMVI anti-proliferative assay, IC50 activity level; read-out: Activity.
As to `COC(=O)N1CCC[C@@H](Nc2ncc3nc(Nc4c(F)cc(Cl)cc4F)n([C@H]4CC[C@@H](C(N)=O)CC4)c3n2)C1` [Example 408, (R)-methyl 3-(9-((1s,4S)-4-carbamoylcyclohexyl)-8-(4-chloro-2,6-difluorophenylamino)-9H-purin-2-ylamino)piperidine-1-carboxylate], the IC50 was in the range of 500 to 1000 nM. As for `NC(=O)[C@H]1CC[C@@H](n2c(Nc3c(Cl)cc(Cl)cc3Cl)nc3cnc(N[C@@H]4CCC[C@@H](O)C4)nc32)CC1` [Example 415, (1S,4s)-4-(2-((1R,3R)-3-hydroxycyclohexylamino)-8-(2,4,6-trichlorophenylamino)-9H-purin-9-yl)cyclohexanecarboxamide], the IC50 lay in the range of 500 to 1000 nM. With `NC(=O)[C@H]1CC[C@@H](n2c(Nc3c(F)cc(Cl)cc3F)nc3cnc(N[C@@H]4CCC(F)(F)C4)nc32)CC1` [Example 588, (1S,4s)-4-(8-(4-chloro-2,6-difluorophenylamino)-2-((R)-3,3-difluorocyclopentylamino)-9H-purin-9-yl)cyclohexanecarboxamide], the IC50 was less than 250 nM. Same read-out and setting: the same measure for `COC(=O)N1CCCC(Nc2ncc3nc(Nc4c(F)ccc(Cl)c4F)n([C@H]4CC[C@@H](C(N)=O)CC4)c3n2)C1` (stereo partly drawn) [Example 413, (R)-methyl 3-(9-((1s,4S)-4-carbamoylcyclohexyl)-8-(3-chloro-2,6-difluorophenylamino)-9H-purin-2-ylamino)piperidine-1-carboxylate]: greater than 1000 nM; for `C[C@@H](CO)Nc1ncc2nc(Nc3c(Cl)cc(F)cc3Cl)n([C@H]3CC[C@@](C)(C(N)=O)CC3)c2n1` [Example 551, (1R,4s)-4-(8-(2,6-dichloro-4-fluorophenylamino)-2-((S)-1-hydroxypropan-2-ylamino)-9H-purin-9-yl)-1-methylcyclohexanecarboxamide]: less than 250 nM.

The assay is the same for the next values; noted with them: Homo sapiens; Lox-IMVI melanoma cell line, anti-proliferative assay; read-out: Activity (IC50 activity level).
Take `N#Cc1cc(F)c(Nc2nc3cnc(N[C@@H]4CCCN(C(=O)Nc5ccccc5)C4)nc3n2[C@H]2CC[C@@H](C(N)=O)CC2)c(Cl)c1` [Example 785, (R)-3-(9-((1s,4S)-4-carbamoylcyclohexyl)-8-(2-chloro-4-cyano-6-fluorophenylamino)-9H-purin-2-ylamino)-N-phenylpiperidine-1-carboxamide]: the IC50 is greater than 1000 nM. Regarding `C[C@]1(C(N)=O)CC[C@@H](n2c(Nc3c(Cl)cc(C(F)(F)F)cc3Cl)nc3cnc(NC4CCC4)nc32)CC1` [Example 602, (1s,4s)-4-(2-(cyclobutylamino)-8-(2,6-dichloro-4-(trifluoromethyl)phenylamino)-9H-purin-9-yl)-1-methylcyclohexanecarboxamide], the IC50 was greater than 1000 nM. Regarding `C[C@]1(C(N)=O)CC[C@@H](n2c(Nc3c(F)cc(F)cc3F)nc3cnc(N[C@H]4CCC[C@H](O)C4)nc32)CC1` [Example 609, (1R,4s)-4-(2-((1S,3S)-3-hydroxycyclohexylamino)-8-(2,4,6-trifluorophenylamino)-9H-purin-9-yl)-1-methylcyclohexanecarboxamide], the IC50 was in the range of 250 to 500 nM.

Turning to `C[C@]1(C(N)=O)CC[C@@H](n2c(Nc3c(Cl)cc(C#N)cc3Cl)nc3cnc(N[C@@H]4CCC[C@@H](O)C4)nc32)CC1` [Example 624, (1S,4s)-4-(8-(2,6-dichloro-4-cyanophenylamino)-2-((1R,3R)-3-hydroxycyclohexylamino)-9H-purin-9-yl)-1-methylcyclohexanecarboxamide], the IC50 is 250 to 500 nM. The same measure, in the same setting: the figure for `C[C@]1(C(N)=O)CC[C@@H](n2c(Nc3c(F)cc(Cl)cc3Cl)nc3cnc(N[C@@H]4CCC[C@@H](O)C4)nc32)CC1` [Example 620, (1S,4s)-4-(8-(2,4-dichloro-6-fluorophenylamino)-2-((1R,3R)-3-hydroxycyclohexylamino)-9H-purin-9-yl)-1-methylcyclohexanecarboxamide] is 500 to 1000 nM; for `NC(=O)[C@H]1CC[C@@H](n2c(Nc3c(F)cc(Cl)cc3F)nc3cnc(N[C@@H]4CCCN(Cc5ccccc5)C4)nc32)CC1` [Example 757, (1S,4s)-4-(2-((R)-1-benzylpiperidin-3-ylamino)-8-(4-chloro-2,6-difluorophenylamino)-9H-purin-9-yl)cyclohexanecarboxamide] it is greater than 1000 nM; for `NC(=O)[C@H]1CC[C@@H](n2c(Nc3c(F)cc(Cl)cc3Cl)nc3cnc(NC[C@@H]4CCCC[C@@H]4O)nc32)CC1` [Example 655, (1R,4s)-4-(8-(2,4-dichloro-6-fluorophenylamino)-2-(((1S,2S)-2-hydroxycyclohexyl)methylamino)-9H-purin-9-yl)cyclohexanecarboxamide] it is greater than 1000 nM.

Take `C[C@]1(C(N)=O)CC[C@@H](n2c(Nc3c(F)cc(F)cc3Cl)nc3cnc(N[C@@H]4CCOC[C@H]4F)nc32)CC1` [Example 715, (1S,4s)-4-(8-(2-chloro-4,6-difluorophenylamino)-2-((3S,4R)-3-fluorotetrahydro-2H-pyran-4-ylamino)-9H-purin-9-yl)-1-methylcyclohexanecarboxamide]: the IC50 is less than 250 nM. For the compound `NC(=O)[C@H]1CC[C@@H](n2c(Nc3c(F)cc(F)cc3F)nc3cnc(N[C@@H]4CCCN(C(=O)Nc5ccccc5)C4)nc32)CC1` [Example 781, (R)-3-(9-((1s,4S)-4-carbamoylcyclohexyl)-8-(2,4,6-trifluorophenylamino)-9H-purin-2-ylamino)-N-phenylpiperidine-1-carboxamide], the IC50 is greater than 1000 nM. As to `COC(=O)N1CCC[C@@H](Nc2ncc3nc(Nc4c(Cl)cc(C#N)cc4Cl)n([C@H]4CC[C@@H](C(N)=O)CC4)c3n2)C1` [Example 708, (R)-methyl 3-(9-((1s,4S)-4-carbamoylcyclohexyl)-8-(2,6-dichloro-4-cyanophenylamino)-9H-purin-2-ylamino)piperidine-1-carboxylate], the IC50 is 250 to 500 nM.

Still in this assay, the particulars now being: Lox-IMVI anti-proliferative assay, IC50 activity level; read-out: Activity.
Turning to `N#Cc1cc(F)c(Nc2nc3cnc(N[C@H]4CCCOCC4)nc3n2C2CCC(C(N)=O)CC2)c(F)c1` (stereo partly drawn) [Example 542, (1s,4s)-4-(8-(4-cyano-2,6-difluorophenylamino)-2-(oxepan-4-ylamino)-9H-purin-9-yl)cyclohexanecarboxamide], the IC50 is greater than 1000 nM.
